Assay results published in ChEMBL document CHEMBL1142653, “In silico prediction of membrane permeability from calculated molecular parameters” (J Med Chem, 2005).

Key:
[1] = Apparent permeability of the compound was determined in MDCK (madin darby canine kidney) strain I; Activity = Papp 10e-6; format: ADME, Canis lupus familiaris; details: dog
[2] = Apparent permeability of the compound was determined inCaco-2 (human colon carcinoma) cells; Activity = Papp 10E-6; format: ADME; details: Caco-2

With O=C(N[C@H](CO)[C@H](O)c1ccc([N+](=O)[O-])cc1)C(Cl)Cl [CHLORAMPHENICOL] as the compound, how does the Papp [1] read?
Its Papp is 3.15 ×10⁻⁶ cm/s.

Which Papp [2] does the source give for COCCc1ccc(OCC(O)CNC(C)C)cc1 (stereo unspecified) [METOPROLOL] here?
The Papp was 18.2 ×10⁻⁶ cm/s.

And the Papp [1]?
Its Papp is 37.8 ×10⁻⁶ cm/s.

With CC(C)NCC(O)COc1cccc2ccccc12 (stereo unspecified) [PROPRANOLOL] as the compound, how does the Papp [2] read?
The Papp was 12.6 ×10⁻⁶ cm/s.

What about the Papp [1] of the same compound?
The Papp was 34.4 ×10⁻⁶ cm/s.

With CN/C(=C\[N+](=O)[O-])NCCSCc1ccc(CN(C)C)o1 [RANITIDINE] as the compound, how does the Papp [1] read?
The Papp was 0.27 ×10⁻⁶ cm/s.
